Values quoted from earlier work as cited in patent US20230062279A1, “PHARMACEUTICAL COMPOSITIONS OF BORTEZOMIB” (EXTROVIS AG, priority 2021, published 2023).
Read-outs that look alike come from different tables or passages of the source.

degradation (PEG 300:Ethanol:Water (40:10:50), 25° C., 24 hours): about 20% | degradation (PG:Ethanol:Water, 25° C., 8 months): 20% | degradation (ethanol and normal saline 2:98, pH 2.8, 25° C., 1 month): 20%
Structure (SMILES): CC(C)C[C@H](NC(=O)[C@H](Cc1ccccc1)NC(=O)c1cnccn1)B(O)O [bortezomib, [(1R)-3-methyl-1-[[(2S)-1-oxo-3-phenyl-2-[(pyrazinylcarbonyl)amino]propyl]amino]butyl] boronic acid]
